Data published in patent US11970497B2, “Tricyclic AKR1C3 dependent KARS inhibitors” (Novartis AG, priority 2019, dated 2024).

Assays:
Test in all cases: Expanded lung cancer cell line proliferation assay
Assay type in all cases: cell-based
NCI-H810 = conditions: Homo sapiens; NCI-H810, 72 h, average of PrestoBlue and Cell Titer Glo; AKR1C3 52.5 TPM; read-out: Absolute Qualified AC50
How it was run: (§1)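 Read-out: PrestoBlue (resazurin) plus CellTiter-Glo (ATP), multiplexed; Absolute Qualified AC50 averaged across the two. Compounds dosed 8-point from 1 μM top (1:3.16 steps), 72 h, 0.3% DMSO; normalized to DMSO neutral and 30 μM MG132 active controls.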

NCI-H1373 = conditions: Homo sapiens; NCI-H1373, 72 h, average of PrestoBlue and Cell Titer Glo; AKR1C3 8 TPM; read-out: Absolute Qualified AC50
How it was run: as §1

NCI-H1838 = conditions: Homo sapiens; NCI-H1838, 72 h, average of PrestoBlue and Cell Titer Glo; AKR1C3 1.8 TPM; read-out: Absolute Qualified AC50
How it was run: as §1

SW1271 = conditions: SW1271, 72 h, average of PrestoBlue and Cell Titer Glo; AKR1C3 2.4 TPM; read-out: Absolute Qualified AC50
How it was run: as §1

A427 = conditions: Homo sapiens, A-427; A427, 72 h, average of PrestoBlue and Cell Titer Glo; AKR1C3 0.2 TPM; read-out: Absolute Qualified AC50
How it was run: as §1

CAL-12T = conditions: Homo sapiens, 72 h, average of PrestoBlue and Cell Titer Glo, AKR1C3 23.6 TPM, read-out: Absolute Qualified AC50
How it was run: as §1

A549 = conditions: Homo sapiens; A549, 72 h, average of PrestoBlue and Cell Titer Glo; AKR1C3 3017.9 TPM; read-out: Absolute Qualified AC50
How it was run: as §1

NCI-H1573 = conditions: Homo sapiens; NCI-H1573, 72 h, average of PrestoBlue and Cell Titer Glo; AKR1C3 306.2 TPM; read-out: Absolute Qualified AC50
How it was run: as §1

DV-90 = conditions: Homo sapiens; DV-90, 72 h, average of PrestoBlue and Cell Titer Glo; AKR1C3 48.9 TPM; read-out: Absolute Qualified AC50
How it was run: as §1

LK2 = conditions: Homo sapiens, LK-2; LK2, 72 h, average of PrestoBlue and Cell Titer Glo; AKR1C3 1107 TPM; read-out: Absolute Qualified AC50
How it was run: as §1

RERF-LC-MS = conditions: 72 h, average of PrestoBlue and Cell Titer Glo, AKR1C3 221.6 TPM, read-out: Absolute Qualified AC50
How it was run: as §1

RERF-LC-AI = conditions: 72 h, average of PrestoBlue and Cell Titer Glo, AKR1C3 7.6 TPM, read-out: Absolute Qualified AC50
How it was run: as §1

COLO-699 = conditions: COLO-699, 72 h, average of PrestoBlue and Cell Titer Glo; AKR1C3 expression: no data available; read-out: Absolute Qualified AC50
How it was run: as §1

NCI-H1568 = conditions: NCI-H1568, 72 h, average of PrestoBlue and Cell Titer Glo; AKR1C3 2.8 TPM; read-out: Absolute Qualified AC50
How it was run: as §1

For `CN1c2ccc(F)cc2C(=O)CC12CCN(C(=O)NCc1ccc(F)c(NCCO)c1)CC2` [Example 36, 6′-fluoro-N-(4-fluoro-3-((2-hydroxyethyl)amino)benzyl)-1′-methyl-4′-oxo-3′,4′-dihydro-1′H-spiro[piperidine-4,2′-quinoline]-1-carboxamide], the AC50 (NCI-H810) was over 1000 nM, the AC50 (NCI-H1373) was over 1000 nM and the AC50 (NCI-H1838) was over 1000 nM. It also gave an AC50 (SW1271) of over 1000 nM, an AC50 (A427) of over 1000 nM and an AC50 (CAL-12T) of over 1000 nM. It also gave an AC50 (A549) of 301 nM, an AC50 (NCI-H1573) of 946 nM and an AC50 (DV-90) of 347 nM. The AC50 (LK2) was over 1000 nM, the AC50 (RERF-LC-MS) was over 1000 nM and the AC50 (RERF-LC-AI) was over 1000 nM. It also gave an AC50 (COLO-699) of over 1000 nM and an AC50 (NCI-H1568) of over 1000 nM.
For `O=C1CC2(CCN(C(=O)NCc3ccc(F)cc3)CC2)Nc2ccc(F)cc21` [Example 40], the AC50 (NCI-H810) was 983 nM, the AC50 (NCI-H1373) was over 1000 nM and the AC50 (NCI-H1838) was over 1000 nM. It also gave an AC50 (SW1271) of over 1000 nM, an AC50 (A427) of over 1000 nM and an AC50 (CAL-12T) of over 1000 nM. It also gave an AC50 (A549) of 56 nM, an AC50 (NCI-H1573) of 293 nM and an AC50 (DV-90) of 159 nM. For the same compound, the AC50 (LK2) was over 1000 nM, the AC50 (RERF-LC-MS) was over 1000 nM and the AC50 (RERF-LC-AI) was over 1000 nM. It also gave an AC50 (COLO-699) of over 1000 nM and an AC50 (NCI-H1568) of over 1000 nM.
